According to US10844032B2, “Substituted benzofuran, benzothiophene and indole Mcl-1 inhibitors” (Vanderbilt University, priority 2012, dated 2020):

What follows are molecules tested against recombinant Mcl-1 (residues 172-327) (Homo sapiens (Human), UniProt Q07820) (assay: Bak peptide fluorescence polarization anisotropy competition assay, Mcl-1). Conditions: not given.
Assay type: binding

Sequence of recombinant Mcl-1 (residues 172-327) (Q07820 172-327): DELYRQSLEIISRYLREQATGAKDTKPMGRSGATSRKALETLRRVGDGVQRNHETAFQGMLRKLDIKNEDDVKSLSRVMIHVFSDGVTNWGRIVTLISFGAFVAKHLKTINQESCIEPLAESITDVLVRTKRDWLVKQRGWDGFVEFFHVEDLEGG

| SMILES | Ki [nM] |
| --- | --- |
| Cc1cc(OCCCc2c(C(=O)NS(=O)(=O)CCNC(=O)c3cn(Cc4ccccc4)c4ccccc34)[nH]c3ccccc23)cc(C)c1Cl [Example 201, N-((2-(1-benzyl-1H-indole-3-carboxamido)ethyl)sulfonyl)-3-(3-(4-chloro-3,5-dimethylphenoxy)propyl)-1H-indole-2-carboxamide] | 101 to 299 |

Same assay, conditions: Table 2, Ki range; FITC-Bak peptide 10 nM, Mcl-1 14 nM; read-out: Ki for inhibition of Mcl-1

| Ki [nM] | SMILES |
| --- | --- |
| ≤ 100 | Cc1cc(OCCCc2c(C(=O)NS(=O)(=O)c3ccccc3)[nH]c3c(-c4ccncc4C(F)(F)F)cccc23)cc(C)c1Cl [Example 104, 3-(3-(4-chloro-3,5-dimethylphenoxy)propyl)-N-(phenylsulfonyl)-7-(3-(trifluoromethyl)pyridin-4-yl)-1H-indole-2-carboxamide] |
| ≤ 100 | CCCn1nccc1-c1cccc2c(CCCOc3cc(C)c(Cl)c(C)c3)c(C(=O)NS(=O)(=O)c3ccccc3)[nH]c12 [Example 303, 3-(3-(4-chloro-3,5-dimethylphenoxy)propyl)-N-(phenylsulfonyl)-7-(1-propyl-1H-pyrazol-5-yl)-1H-indole-2-carboxamide] |
| ≤ 100 | Cc1cc(OCCCc2c(C(=O)NS(=O)(=O)c3ccccc3)[nH]c3c(-c4cccn4C)cccc23)cc(C)c1Cl [Example 101, 3-(3-(4-chloro-3,5-dimethylphenoxy)propyl)-7-(1-methyl-1H-pyrrol-2-yl)-N-(phenylsulfonyl)-1H-indole-2-carboxamide] |
| ≤ 100 | Cc1cc(OCCCc2c(C(=O)NS(=O)(=O)CCNC(=O)[C@@H]3Cc4ccccc4N3)[nH]c3cc(Cl)ccc23)cc(C)c1Cl [Example 237, (S)-6-chloro-3-(3-(4-chloro-3,5-dimethylphenoxy)propyl)-N-((2-(indoline-2-carboxamido)ethyl)sulfonyl)-1H-indole-2-carboxamide] |
| ≤ 100 | Cc1cc(OCCCc2c(C(=O)NS(=O)(=O)c3ccccc3)[nH]c3c(-c4ccsc4C)cccc23)cc(C)c1Cl [Example 98, 3-(3-(4-chloro-3,5-dimethylphenoxy)propyl)-7-(2-methylthiophen-3-yl)-N-(phenylsulfonyl)-1H-indole-2-carboxamide] |
| ≤ 100 | Cc1cc(OCCCc2c(C(=O)NS(=O)(=O)c3ccccc3)[nH]c3c(-c4c(C)n[nH]c4C)cccc23)cc(C)c1Cl [Example 305, 3-(3-(4-chloro-3,5-dimethylphenoxy)propyl)-7-(3,5-dimethyl-1H-pyrazol-4-yl)-N-(phenylsulfonyl)-1H-indole-2-carboxamide] |
| ≤ 100 | Cc1cc(OCCCc2c(C(=O)NS(=O)(=O)CCNC(=O)C3CCCCC3)[nH]c3cc(Cl)ccc23)cc(C)c1Cl [Example 226, 6-chloro-3-(3-(4-chloro-3,5-dimethylphenoxy)propyl)-N-((2-(cyclohexanecarboxamido)ethyl)sulfonyl)-1H-indole-2-carboxamide] |
| ≤ 100 | Cc1ccsc1-c1cccc2c(CCCOc3cc(C)c(Cl)c(C)c3)c(C(=O)NS(=O)(=O)c3ccccc3)[nH]c12 [Example 99, 3-(3-(4-chloro-3,5-dimethylphenoxy)propyl)-7-(3-methylthiophen-2-yl)-N-(phenylsulfonyl)-1H-indole-2-carboxamide] |
| ≤ 100 | Cc1cc(OCCCc2c(C(=O)NS(=O)(=O)c3ccccc3)[nH]c3cc(Cl)ccc23)cc(C)c1Cl [Example 216, 6-chloro-3-(3-(4-chloro-3,5-dimethylphenoxy)propyl)-N-(phenylsulfonyl)-1H-indole-2-carboxamide] |

Same assay, conditions: read-out: Ki for inhibition of Mcl-1

| Ki [nM] | SMILES |
| --- | --- |
| 101 to 299 | Cc1cc(OCCCc2c(C(=O)NS(=O)(=O)CCNC(=O)C3CCCCC3)[nH]c3ccccc23)cc(C)c1Cl [Example 150, 3-(3-(4-chloro-3,5-dimethylphenoxy)propyl)-N-((2-(cyclohexanecarboxamido)ethyl)sulfonyl)-1H-indole-2-carboxamide] |
| 501 to 999 | CC(=O)NCCS(=O)(=O)NC(=O)c1[nH]c2ccccc2c1CCCOc1cc(C)c(Cl)c(C)c1 [Example 198, N-((2-acetamidoethyl)sulfonyl)-3-(3-(4-chloro-3,5-dimethylphenoxy)propyl)-1H-indole-2-carboxamide] |
| 301 to 500 | CS(=O)(=O)NC(=O)c1cc2ccccc2n1CCCOc1cccc2ccccc12 [Example 14, N-(methylsulfonyl)-1-(3-(naphthalen-1-yloxy)propyl)-1H-indole-2-carboxamide] |
| 1000 to 9990 | Cc1cc(OCCCc2c(C(=O)NS(=O)(=O)CCNC(=O)c3cncn3C)[nH]c3ccccc23)cc(C)c1Cl [Example 187, 3-(3-(4-chloro-3,5-dimethylphenoxy)propyl)-N-((2-(1-methyl-1H-imidazole-5-carboxamido)ethyl)sulfonyl)-1H-indole-2-carboxamide] |
| 301 to 500 | Cc1cc(OCCCc2c(C(=O)NS(=O)(=O)CCNC(=O)C3CCCCC3)[nH]c3cccc(Cl)c23)cc(C)c1Cl [Example 208, 4-chloro-3-(3-(4-chloro-3,5-dimethylphenoxy)propyl)-N-((2-(cyclohexanecarboxamido)ethyl)sulfonyl)-1H-indole-2-carboxamide] |
| 301 to 500 | CS(=O)(=O)NC(=O)c1[nH]c2cc(Cl)ccc2c1CCCOc1ccc(Cl)c2ccccc12 [Example 76, 6-chloro-3-(3-((4-chloronaphthalen-1-yl)oxy)propyl)-N-(methylsulfonyl)-1H-indole-2-carboxamide] |
| 301 to 500 | Cc1cc(OCCCc2c(C(=O)NS(C)(=O)=O)[nH]c3cc(C(F)(F)F)ccc23)ccc1Cl [Example 77, 3-(3-(4-chloro-3-methylphenoxy)propyl)-N-(methylsulfonyl)-6-(trifluoromethyl)-1H-indole-2-carboxamide] |
| 101 to 299 | CC(=O)N1CCN(c2ccc(OCc3nn(C)c(C)c3-c3cccc4c(CCCOc5cc(C)c(Cl)c(C)c5)c(C(=O)NS(C)(=O)=O)n(Cc5cccnc5)c34)cc2)CC1 [Example 125, 7-(3-((4-(4-acetylpiperazin-1-yl)phenoxy)methyl)-1,5-dimethyl-1H-pyrazol-4-yl)-3-(3-(4-chloro-3,5-dimethylphenoxy)propyl)-N-(methylsulfonyl)-1-(pyridin-3-ylmethyl)-1H-indole-2-carboxamide] |
| 101 to 299 | COCc1nn(C)c(C)c1-c1cccc2c(CCCOc3cc(C)c(Cl)c(C)c3)c(C(=O)NS(=O)(=O)c3ccccc3)n(C)c12 [Example 129, 3-(3-(4-chloro-3,5-dimethylphenoxy)propyl)-7-(3-(methoxymethyl)-1,5-dimethyl-1H-pyrazol-4-yl)-1-methyl-N-(phenylsulfonyl)-1H-indole-2-carboxamide] |
| 1000 to 9990 | O=C(O)c1sc2ccccc2c1CCc1cccc2ccccc12 [Example 64, 3-(2-(naphthalen-1-yl)ethyl)benzo[b]thiophene-2-carboxylic acid] |
| 1000 to 9990 | CS(=O)(=O)NC(=O)c1[nH]c2ccc(Cl)cc2c1CCCOc1cccc2ccccc12 [Example 111, 5-chloro-N-(methylsulfonyl)-3-(3-(naphthalen-1-yloxy)propyl)-1H-indole-2-carboxamide] |
| 101 to 299 | Cc1cc(OCCCc2c(C(=O)NS(=O)(=O)c3ccccc3)[nH]c3c(-c4cccnc4)cccc23)cc(C)c1Cl [Example 93, 3-(3-(4-chloro-3,5-dimethylphenoxy)propyl)-N-(phenylsulfonyl)-7-(pyridin-3-yl)-1H-indole-2-carboxamide] |
| 101 to 299 | Cc1cc(OCCCc2c(C(=O)NS(=O)(=O)CCNC(=O)[C@@H]3Cc4ccccc4N3C)[nH]c3cc(Cl)ccc23)cc(C)c1Cl [Example 238, (S)-6-chloro-3-(3-(4-chloro-3,5-dimethylphenoxy)propyl)-N-((2-(1-methylindoline-2-carboxamido)ethyl)sulfonyl)-1H-indole-2-carboxamide] |
| 1000 to 9990 | CS(=O)(=O)NC(=O)c1[nH]c2cc(Cl)ccc2c1CCCOc1ccc(Cl)c(Cl)c1 [Example 105, 6-chloro-3-(3-(3,4-dichlorophenoxy)propyl)-N-(methylsulfonyl)-1H-indole-2-carboxamide] |
| 301 to 500 | Cc1cc(OCCCc2c(C(=O)NS(=O)(=O)CCNC(=O)c3ccccc3)[nH]c3ccccc23)cc(C)c1Cl [Example 161, N-((2-benzamidoethyl)sulfonyl)-3-(3-(4-chloro-3,5-dimethylphenoxy)propyl)-1H-indole-2-carboxamide] |
| 101 to 299 | Cc1cc(OCCCc2c(C(=O)NS(=O)(=O)CCNC(=O)c3ccoc3)[nH]c3ccccc23)cc(C)c1Cl [Example 158, 3-(3-(4-chloro-3,5-dimethylphenoxy)propyl)-N-((2-(furan-3-carboxamido)ethyl)sulfonyl)-1H-indole-2-carboxamide] |
| 1000 to 9990 | O=C(NS(=O)(=O)c1ccc2ccccc2c1)c1oc2ccccc2c1CCCOc1cccc2ccccc12 [Example 25, 3-(3-(naphthalen-1-yloxy)propyl)-N-(naphthalen-2-ylsulfonyl)benzofuran-2-carboxamide] |
| 101 to 299 | COc1ccc(Oc2cccc(S(=O)(=O)NC(=O)c3[nH]c4cc(Cl)ccc4c3CCCOc3cc(C)c(Cl)c(C)c3)c2)cc1 [Example 220, 6-chloro-3-(3-(4-chloro-3,5-dimethylphenoxy)propyl)-N-((3-(4-methoxyphenoxy)phenyl)sulfonyl)-1H-indole-2-carboxamide] |
| 301 to 500 | COc1ccc(S(=O)(=O)NCCS(=O)(=O)NC(=O)c2[nH]c3ccccc3c2CCCOc2cc(C)c(Cl)c(C)c2)cc1 [Example 147, 3-(3-(4-chloro-3,5-dimethylphenoxy)propyl)-N-((2-(4-methoxyphenylsulfonamido)ethyl)sulfonyl)-1H-indole-2-carboxamide] |
| 101 to 299 | Cc1cc(OCCCc2c(C(=O)NS(C)(=O)=O)[nH]c3c(C)c(Cl)ccc23)cc(C)c1Cl [Example 119, 6-chloro-3-(3-(4-chloro-3,5-dimethylphenoxy)propyl)-7-methyl-N-(methylsulfonyl)-1H-indole-2-carboxamide] |
| 301 to 500 | Cc1cc(OCCCc2c(C(=O)NS(C)(=O)=O)[nH]c3cc(Br)ccc23)cc(C)c1Cl [Example 112, 6-bromo-3-(3-(4-chloro-3,5-dimethylphenoxy)propyl)-N-(methylsulfonyl)-1H-indole-2-carboxamide] |
| 301 to 500 | Cc1cc(OCCCc2c(C(=O)NS(=O)(=O)c3ccccc3)[nH]c3c(-c4cnn(C)c4)ccc(Cl)c23)cc(C)c1Cl [Example 122, 4-chloro-3-(3-(4-chloro-3,5-dimethylphenoxy)propyl)-7-(1-methyl-1H-pyrazol-4-yl)-N-(phenylsulfonyl)-1H-indole-2-carboxamide] |
